In patent US20110144331A1, “Cinnoline Compounds for the Treatment of Anxiety, Cognitive and Mood Disorders” (AstraZeneca AB, priority 2005, published 2011):

Experiments:
[1] = target: T1, human α1β2γ2 GABAA receptor (Homo sapiens, UniProt P14867+P18507); experiment: Two-electrode voltage-clamp in Xenopus oocytes, potentiation of GABA EC10 current, GABAA1; assay type: cell-based; settings: percentage potentiation of GABA EC10 current divided by that of diazepam control
T1 construct: expressed in transfected cells; host or cells: Xenopus laevis oocytes injected with capped cRNA
T1 sequence (P14867 28-456): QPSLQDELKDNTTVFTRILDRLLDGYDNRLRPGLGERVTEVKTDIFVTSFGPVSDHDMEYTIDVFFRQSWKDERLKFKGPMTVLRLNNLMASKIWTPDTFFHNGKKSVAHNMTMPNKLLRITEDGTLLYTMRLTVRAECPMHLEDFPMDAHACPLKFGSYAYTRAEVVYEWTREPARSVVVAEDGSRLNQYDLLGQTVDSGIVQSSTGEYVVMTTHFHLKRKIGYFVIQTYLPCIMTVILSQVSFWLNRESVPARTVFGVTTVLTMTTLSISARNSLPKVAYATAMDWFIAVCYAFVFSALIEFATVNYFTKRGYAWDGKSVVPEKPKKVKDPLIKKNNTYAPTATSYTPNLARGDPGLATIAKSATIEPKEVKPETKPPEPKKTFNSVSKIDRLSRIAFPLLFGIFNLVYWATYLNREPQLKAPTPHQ
T1 sequence (P47870 25-512 partner limits assumed): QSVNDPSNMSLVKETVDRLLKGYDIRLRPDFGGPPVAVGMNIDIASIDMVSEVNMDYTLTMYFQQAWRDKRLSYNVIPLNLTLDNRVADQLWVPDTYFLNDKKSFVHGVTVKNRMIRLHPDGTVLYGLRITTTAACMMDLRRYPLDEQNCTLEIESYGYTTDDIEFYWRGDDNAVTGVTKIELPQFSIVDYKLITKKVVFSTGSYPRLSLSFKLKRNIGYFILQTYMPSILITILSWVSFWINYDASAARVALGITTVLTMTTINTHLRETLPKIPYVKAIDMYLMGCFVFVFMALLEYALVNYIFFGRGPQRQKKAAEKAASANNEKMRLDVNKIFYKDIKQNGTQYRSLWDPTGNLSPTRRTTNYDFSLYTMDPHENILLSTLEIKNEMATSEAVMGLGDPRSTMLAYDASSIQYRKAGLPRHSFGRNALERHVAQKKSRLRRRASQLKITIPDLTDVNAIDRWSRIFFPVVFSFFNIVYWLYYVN
T1 sequence (P18507 40-475): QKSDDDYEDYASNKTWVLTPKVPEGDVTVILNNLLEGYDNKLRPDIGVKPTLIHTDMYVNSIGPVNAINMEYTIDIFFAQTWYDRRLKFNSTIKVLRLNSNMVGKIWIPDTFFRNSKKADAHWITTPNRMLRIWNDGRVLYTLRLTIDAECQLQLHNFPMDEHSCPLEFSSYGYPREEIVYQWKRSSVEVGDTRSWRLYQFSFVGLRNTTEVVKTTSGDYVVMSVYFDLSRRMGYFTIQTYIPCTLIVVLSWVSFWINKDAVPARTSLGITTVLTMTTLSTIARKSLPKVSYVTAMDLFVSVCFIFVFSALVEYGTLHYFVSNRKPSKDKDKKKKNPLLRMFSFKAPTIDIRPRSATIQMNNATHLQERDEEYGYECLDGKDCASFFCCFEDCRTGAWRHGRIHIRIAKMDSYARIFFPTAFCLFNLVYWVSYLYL
Procedure: (§1) GABAA receptors were heterologously expressed in Xenopus oocytes by injecting cRNA corresponding to human α1, α2, α3, α5, β2, β3 and γ2 subunits of the GABAA receptor genes. The specific subunit combinations (subtypes) were as follows: α1β2γ2, α2β3γ2, α3β3γ2, and α5β3γ2. The EC10 of GABA was approximated for each cell. Stability of GABA-mediated (EC10) current was established. Modulatory effect of test compound was determined and compared across subtypes. […] Thus, the assay can characterize modulatory effects and determine subtype selectivity of test compounds on major subtypes of GABAA receptors.
(§2) Surgically removed ovarian lobes were teased out in OR2 solution (82 NaCl, 2.5 KCl, 5 HEPES, 1.5 NaH2PO4, 1 MgCl2, 0.1 EDTA, in mM, pH 7.4). The oocytes were defolliculated by incubation in 25 mL OR2 containing 0.2% collagenase 1A (SIGMA) two times for about 60 minutes on a platform shaker and stored in Leibovitz's L-15 medium. Oocytes were injected the following day in 0.5× Leibovitz's L-15 medium containing […] gentamycin, 10 units/ml penicillin, and […] streptomycin.
(§3) Capped cRNAs from the linearized vectors containing human α1, β2 and γ2 subunits of the GABAA receptor genes were mixed in ratio of 1:1:30. Oocytes were injected with 25-50 nL of mixed RNA with an appx molar ratio for α1, β2, and γ2 as 1:1:10. Oocyte recordings were done 2-10 days after injection. The same methods apply to subtypes derived from α2β2γ2, α3β3γ2, and α5β3γ2, except for 1:1:1 ratio was used for α, β, and γ subunits.
(§4) All measurements were done in a medium containing ND-96 (96 NaCl, 2 KCl, 1.8 CaCl2.2H2O, 1 MgCl2.6H2O, 5 HEPES, in mM, pH 7.5). Two-electrode voltage-clamp recording was carried out using OpusXpress amplifier (Axon Instruments, Foster City, Calif.), which allows simultaneous recording from 8 oocytes. Oocytes were impaled with two electrodes of 1-2 MΩ tip resistance when filled with 3M KCl. Recordings were begun when membrane potential became stable at potentials negative to −50-−60 mV. Membrane potential was held at −60 mV. […] The concentration of GABA corresponded to the EC10 value calculated for each oocyte. The modulator pulses started 30 s before the GABA pulse so as to allow preincubation with the modulator. A set of 3 pulses with just GABA without modulator was given prior to the modulator-containing pulses to define the baseline GABA response. Two oocytes per each experiment were dedicated to observe the effect of diazepam on GABA response to ensure the presence of γ2 subunit in the GABAA pentameric complex, which imparts diazepam sensitivity to the complex.
(§5) Current amplitude (i) was measured from baseline to peak using Clampfit (Axon Inst., Foster City, Calif.). Potentiation was calculated as percent change from the baseline GABA current flux 100×(imod/icontrol)−1) where imod=current mediated by modulator+GABA and icontrol=current mediated by GABA alone. […] Similarly, a value of −50% potentiation means the presence of modulator caused a 50% decrease in the control current. Various other data shown here were fitted and plotted using GraphPad Prism (GraphPad Software, Inc. San Diego, Calif.). The percentage potentiation was converted to relative potentiation by dividing it with percentage potentiation value obtained from the same assay with diazepam as a control.

[2] = target: T2, human α2β3γ2 GABAA receptor (Homo sapiens, UniProt P18507+P47869); experiment: Two-electrode voltage-clamp in Xenopus oocytes, potentiation of GABA EC10 current, GABAA2; assay type: cell-based; settings: percentage potentiation of GABA EC10 current divided by that of diazepam control
T2 construct: expressed in transfected cells; host or cells: Xenopus laevis oocytes injected with capped cRNA (α:β:γ 1:1:1)
T2 sequence (P47869 29-451): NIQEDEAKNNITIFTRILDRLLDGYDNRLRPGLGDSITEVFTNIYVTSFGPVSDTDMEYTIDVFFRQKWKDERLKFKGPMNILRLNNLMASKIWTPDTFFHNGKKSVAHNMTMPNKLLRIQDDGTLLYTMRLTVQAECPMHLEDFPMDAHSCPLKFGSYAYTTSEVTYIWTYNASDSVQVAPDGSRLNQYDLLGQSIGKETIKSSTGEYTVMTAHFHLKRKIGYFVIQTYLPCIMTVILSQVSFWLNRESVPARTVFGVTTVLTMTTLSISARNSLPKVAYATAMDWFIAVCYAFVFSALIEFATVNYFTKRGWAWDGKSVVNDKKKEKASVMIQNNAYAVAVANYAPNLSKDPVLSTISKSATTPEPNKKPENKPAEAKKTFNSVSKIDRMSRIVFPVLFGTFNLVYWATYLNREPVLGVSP
T2 sequence (P18507 40-475): as the sequence (P18507 40-475) above
T2 sequence (P28472 26-473 partner): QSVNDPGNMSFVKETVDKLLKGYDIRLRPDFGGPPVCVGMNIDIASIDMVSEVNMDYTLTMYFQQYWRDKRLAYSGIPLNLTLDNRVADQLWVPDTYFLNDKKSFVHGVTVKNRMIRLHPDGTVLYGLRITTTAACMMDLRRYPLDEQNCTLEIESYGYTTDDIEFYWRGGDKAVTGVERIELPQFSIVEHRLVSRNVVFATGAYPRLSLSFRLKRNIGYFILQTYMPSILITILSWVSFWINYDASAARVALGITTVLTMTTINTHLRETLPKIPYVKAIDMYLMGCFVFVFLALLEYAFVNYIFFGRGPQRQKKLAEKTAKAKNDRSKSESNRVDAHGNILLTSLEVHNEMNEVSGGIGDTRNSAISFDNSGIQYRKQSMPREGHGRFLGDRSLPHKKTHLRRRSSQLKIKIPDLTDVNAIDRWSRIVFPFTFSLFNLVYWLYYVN
Procedure: as §1, §2, §3, §4, §5

SMILES | Relative Potentiation for GABAA1 [1] | Relative Potentiation for GABAA2 [2]
CCCNC(=O)c1nnc2c(-c3cc(Cl)ccc3OC)c(F)ccc2c1N | 0.25 | –
CCCNC(=O)c1nnc2c(-c3ccccc3C(F)(F)F)cccc2c1N | 0.12 | 0.063
COc1cccc(F)c1-c1cccc2c(N)c(C(=O)NC3CCC3)nnc12 | 0.0017 | 0.12
CCCNC(=O)c1nnc2c(-c3cc(OC)cc(OC)c3)c(F)ccc2c1N | 0.38 | –
CCCNC(=O)c1nnc2c(-c3ccc(OC)c(OC)c3OC)c(F)ccc2c1N | 0.51 | –
CCCNC(=O)c1nnc2c(-c3ccc(OC)cc3C(F)(F)F)c(F)ccc2c1N | 0.28 | –
CCCNC(=O)c1nnc2c(-c3ccc(F)cc3OCC)c(F)ccc2c1N | 0.27 | –
CCCNC(=O)c1nnc2c(-c3cc(Cl)ccc3Cl)c(F)ccc2c1N | 0.21 | –
CCCNC(=O)c1nnc2c(-c3cc(C(F)(F)F)ccc3F)cccc2c1N | 0.41 | 0.59
CCCNC(=O)c1nnc2c(-c3cncc(C(=O)N4CCC4)c3)cccc2c1N | −0.11 | −0.033
CCCNC(=O)c1nnc2c(-c3ccc(OC)cc3C(F)(F)F)cccc2c1N | 0.12 | 0.16
CCCNC(=O)c1nnc2c(-c3ccc(OC)cc3OC)cccc2c1N | 0.18 | 0.15
CCCNC(=O)c1nnc2c(-c3cccnc3)cccc2c1N | −0.11 | 0.054
CCCNC(=O)c1nnc2c(-c3cnc(OC)nc3OC)c(Cl)ccc2c1N | 0.19 | 0.29
CCCNC(=O)c1nnc2c(-c3ccc(OC)c(F)c3)c(F)ccc2c1N | 0.1 | 0.16
CCCNC(=O)c1nnc2c(-c3cc(C)ccc3OC)c(Cl)ccc2c1N | 0.47 | –
CCCCNC(=O)c1nnc2c(-c3cnc(OC)nc3OC)cccc2c1N | 0.16 | 0.45
CCCNC(=O)c1nnc2c(-c3cccc(OC)c3F)cccc2c1N | 0.045 | 0.26
CCCNC(=O)c1nnc2c(-c3cccc(C(=O)N4CCC4)c3)cccc2c1N | 0.19 | −0.0075
CCCNC(=O)c1nnc2c(-c3ccc(OC)c(OC)c3)cccc2c1N | 0.33 | 0.28
CCCNC(=O)c1nnc2c(-c3ccc(C)nc3)cccc2c1N | −0.16 | 0.14
CCCNC(=O)c1nnc2c(-c3ccc(OC)cc3F)cccc2c1N | 0 | 0.12
CCCNC(=O)c1nnc2c(-c3cncc(OC)c3)cccc2c1N | 0.07 | 0.34
CCCNC(=O)c1nnc2c(-c3cccc(OC)c3)cccc2c1N | 0.13 | 0.22
CCCNC(=O)c1nnc2c(-c3ccc(F)cc3OC)cccc2c1N | 0.12 | 0.38
CCNC(=O)c1nnc2c(-c3cnccc3OC)cccc2c1N | −0.02 | 0.28
CCCNC(=O)c1nnc2c(-c3cc(OC)cc(OC)c3)cccc2c1N | 0.28 | 0.57
CCCNC(=O)c1nnc2c(-c3cccc(N(C)C)c3)cccc2c1N | 0.17 | 0.19

SMILES | Relative Potentiation for GABAA1 [1] | Relative Potentiation for GABAA2 [2]
CCCNC(=O)c1nnc2c(-c3cc(F)ccc3C)cccc2c1N | 0.02 | 0.22
CCCNC(=O)c1nnc2c(-c3ccc(OC)cc3OC)c(Cl)ccc2c1N | 0.87 | –
CCCNC(=O)c1nnc2c(-c3cc(F)cc(F)c3OC)c(F)ccc2c1N | 0.1 | 0.14
CCCNC(=O)c1nnc2c(-c3ccccc3)c(Cl)ccc2c1N | 0.25 | 0.16
CCCNC(=O)c1nnc2c(-c3ccc(OC)c(OC)c3OC)cccc2c1N | 0.47 | 0.33
CCCNC(=O)c1nnc2c(-c3cc(C)nn3C)cccc2c1N | 0.23 | 0.18
CCCNC(=O)c1nnc2c(-c3cc(OC)ccc3C)cccc2c1N | 0.1 | 0.22
CCCNC(=O)c1nnc2c(-c3nc(Br)ccc3OC)cccc2c1N | 0.34 | –
CCCNC(=O)c1nnc2c(-c3cnn(C)c3)cccc2c1N | −0.16 | 0.16
CCCNC(=O)c1nnc2c(-c3ccc(Cl)cc3)c(F)ccc2c1N | 0.02 | 0.19
CCCNC(=O)c1nnc2c(-c3ccc(OC)nc3)cccc2c1N | −0.08 | 0.16
CCCNC(=O)c1nnc2c(-c3cccc(S(C)(=O)=O)c3)cccc2c1N | 0.34 | 0.26
CCCNC(=O)c1nnc2c(-c3cc(F)ccc3OC)cccc2c1N | 0.026 | 0.4
CCNC(=O)c1nnc2c(-c3cc(C)ccc3OC)cccc2c1N | 0.23 | –
CCCNC(=O)c1nnc2c(-c3cccc(F)c3OC)cccc2c1N | 0.11 | 0.11
CCCNC(=O)c1nnc2c(-c3cc(C)ccc3C)c(Cl)ccc2c1N | 0.24 | 0.22
CCCNC(=O)c1nnc2c(-c3cccc(Cl)c3)cccc2c1N | 0.18 | 0.53
CCCNC(=O)c1nnc2c(-c3cnc4ccccc4c3)cccc2c1N | −0.15 | 0.11
CCCCNC(=O)c1nnc2c(-c3cc(C)ccc3OC)cccc2c1N | 0.32 | –
CCCNC(=O)c1nnc2c(-c3cc(OC)ccc3OC)c(Cl)ccc2c1N | 0.32 | –
CCNC(=O)c1nnc2c(-c3cnc(OC)nc3OC)cccc2c1N | 0.005 | 0.35
CCCNC(=O)c1nnc2c(-c3ccc(OC)cc3)cccc2c1N | −0.11 | 0.06
CCCNC(=O)c1nnc2c(-c3cc(Cl)cc(Cl)c3)c(F)ccc2c1N | 0.36 | –
CCCNC(=O)c1nnc2c(-c3ccc(C)c(C)c3)cccc2c1N | 0.23 | 0.35
CCCNC(=O)c1nnc2c(-c3ccc(OC)c(C)c3)cccc2c1N | 0.21 | 0.27
CCCNC(=O)c1nnc2c(-c3cc(C(=O)N4CCC4)ccc3OC)cccc2c1N | 0.48 | –
CCCNC(=O)c1nnc2c(-c3ccsc3)cccc2c1N | −0.26 | 0.038
